Measured values from US6461997B1, “Triazole sulfones having herbicidal activity” (Monsanto Technology LLC, priority 1999, dated 2002).

How the values were obtained:
AMARE (redroot pigweed) [1] = assay: Pre-emergence herbicidal activity, warm season; type: in vivo, Amaranthus retroflexus; conditions: GR80 = lowest tested rate (300, 100, 30, 10 g/ha) with 80% or greater inhibition; approx. 14 days after treating; 30/21° C.
Method in brief: (§1)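 GR80 values derive from percent inhibition relative to untreated plants, read roughly 14 days after sowing and pre-emergence soil-surface treatment (compound in 50:50 acetone/water; rates typically 10, 30, 100, 300 g/ha). Warm-season weeds grew at 30/21° C day/night, cool-season ones at 18/13° C; an asterisk marks activity without reaching 80% at the highest rate.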

SETVI (green foxtail) = assay: Pre-emergence herbicidal activity, cool season; type: in vivo, Setaria viridis; conditions: GR80 = lowest tested rate (300, 100, 30, 10 g/ha) with 80% or greater inhibition; approx. 14 days after treating; 18/13° C.
Method in brief: as §1

AMARE (redroot pigweed) [2] = assay: Pre-plant incorporated (PPI) herbicidal activity, warm season; type: in vivo, Amaranthus retroflexus; conditions: for Percent inhibition AMARE: PPI application; for PPI activity (GR80) AMARE: pre-plant incorporated, GR80 = lowest tested rate with 80% or greater inhibition, approx. 14 days after treating, 30/21° C.
Method in brief: (§2)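 First, seeds were placed on topsoil compacted to 1.0–1.25 cm below the pot rim. Next, cover soil treated with sprayed test compound and mixed was added over them. Pots then received 0.64 cm irrigation at 30/21° C or 18/13° C day/night, and inhibition versus untreated was rated near day 14.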

[3] = tested on: CHEAL (common lambsquarters); assay: as above; type: in vivo, Chenopodium album; conditions: for Percent inhibition CHEAL: PPI application; for PPI activity (GR80) CHEAL: pre-plant incorporated, GR80 = lowest tested rate with 80% or greater inhibition, approx. 14 days after treating, 30/21° C.
Method in brief: as §2

ECHCG (barnyardgrass) = assay: as above; type: in vivo, Echinochloa crus-galli; conditions: for Percent inhibition ECHCG: PPI application; for PPI activity GR80, ECHCG: pre-plant incorporated, lowest tested rate with 80% or greater inhibition, about 14 days
Method in brief: as §2

[4] = tested on: LAMPU (purple deadnettle); assay: Pre-plant incorporated (PPI) herbicidal activity, cool season; type: in vivo, Lamium purpureum; conditions: for PPI activity GR80, LAMPU: pre-plant incorporated, lowest tested rate with 80% or greater inhibition, about 14 days; for Percent inhibition LAMPU: weed, PPI application
Method in brief: as §2

AVEFA (wild oat) = assay: as above; type: in vivo, Avena fatua; conditions: for PPI activity GR80, AVEFA: pre-plant incorporated, lowest tested rate with 80% or greater inhibition, about 14 days; for Percent inhibition AVEFA: weed, PPI application
Method in brief: as §2

[5] = tested on: AGRRE (quackgrass (seedling)); assay: as above; type: in vivo, Elymus repens; conditions: for PPI activity GR80, AGRRE: pre-plant incorporated, lowest tested rate with 80% or greater inhibition, about 14 days; for Percent inhibition AGRRE: weed, PPI application
Method in brief: as §2

XANST (cocklebur) = assay: Pre-plant incorporated (PPI) herbicidal activity, warm season; type: in vivo, Xanthium strumarium; conditions: PPI application
Method in brief: as §2

wheat (TRZAW) = assay: Selectivity test, PPI, cool season crop; type: in vivo, Triticum aestivum; conditions: PPI application
Method in brief: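 Percent inhibition relative to untreated controls, assessed roughly 14 days post-planting. Seeds were covered with a soil layer into which solvent-borne compound had been sprayed and mixed. Plants were then grown at 30/21° C. (warm season) or 18/13° C. (cool season) day/night regimes.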

CCN(CC)C(=O)n1cnc(S(=O)(=O)C(F)(F)SCC(=O)OC)n1 [Example 11]
Pre-emergence activity (GR80) AMARE (AMARE (redroot pigweed) [1]): 100 g/ha | Pre-emergence activity (GR80) SETVI (SETVI (green foxtail)): 300 g/ha | Percent inhibition AMARE (AMARE (redroot pigweed) [2]; 10 g/ha): 0% | Percent inhibition AMARE (AMARE (redroot pigweed) [2]; 30 g/ha): 90% | Percent inhibition AMARE (AMARE (redroot pigweed) [2]; 100 g/ha): 40% | Percent inhibition AMARE (AMARE (redroot pigweed) [2]; 300 g/ha): 95% | Percent inhibition AMARE (AMARE (redroot pigweed) [2]; 900 g/ha): 100% | PPI activity (GR80) AMARE (AMARE (redroot pigweed) [2]): 100 g/ha | Percent inhibition CHEAL ([3]; 10 g/ha): 30% | Percent inhibition CHEAL ([3]; 30 g/ha): 60% | Percent inhibition CHEAL ([3]; 100 g/ha): 60% | Percent inhibition CHEAL ([3]; 300 g/ha): 100% | Percent inhibition CHEAL ([3]; 900 g/ha): 100% | PPI activity (GR80) CHEAL [3]: 100 g/ha | Percent inhibition ECHCG (ECHCG (barnyardgrass); 10 g/ha): 0% | Percent inhibition ECHCG (ECHCG (barnyardgrass); 30 g/ha): 0% | Percent inhibition ECHCG (ECHCG (barnyardgrass); 100 g/ha): 40% | Percent inhibition ECHCG (ECHCG (barnyardgrass); 300 g/ha): 70% | Percent inhibition ECHCG (ECHCG (barnyardgrass); 900 g/ha): 99% | PPI activity GR80, ECHCG (ECHCG (barnyardgrass)): * (activity observed, at least at highest rate, but <80% inhibition) | PPI activity GR80, LAMPU [4]: 300 g/ha | Percent inhibition LAMPU ([4]; 10 g/ha): 0% | Percent inhibition LAMPU ([4]; 30 g/ha): 0% | Percent inhibition LAMPU ([4]; 100 g/ha): 0% | Percent inhibition LAMPU ([4]; 300 g/ha): 0% | Percent inhibition LAMPU ([4]; 900 g/ha): 0% | PPI activity GR80, AVEFA (AVEFA (wild oat)): [empty] | Percent inhibition AVEFA (AVEFA (wild oat); 10 g/ha): 0% | Percent inhibition AVEFA (AVEFA (wild oat); 30 g/ha): 0% | Percent inhibition AVEFA (AVEFA (wild oat); 100 g/ha): 0% | Percent inhibition AVEFA (AVEFA (wild oat); 300 g/ha): 0% | Percent inhibition AVEFA (AVEFA (wild oat); 900 g/ha): 60% | PPI activity GR80, AGRRE [5]: * (activity observed, at least at highest rate, but <80% inhibition) | Percent inhibition AGRRE ([5]; 10 g/ha): 0% | Percent inhibition AGRRE ([5]; 30 g/ha): 0% | Percent inhibition AGRRE ([5]; 100 g/ha): 0% | Percent inhibition AGRRE ([5]; 300 g/ha): 0% | Percent inhibition AGRRE ([5]; 900 g/ha): 0% | Percent inhibition XANST (XANST (cocklebur); 10 g/ha): 0% | Percent inhibition XANST (XANST (cocklebur); 30 g/ha): 0% | Percent inhibition XANST (XANST (cocklebur); 100 g/ha): 0% | Percent inhibition XANST (XANST (cocklebur); 300 g/ha): 0% | Percent inhibition XANST (XANST (cocklebur); 900 g/ha): 0% | Percent inhibition TRZAW (wheat (TRZAW); 10 g/ha): 0% | Percent inhibition TRZAW (wheat (TRZAW); 30 g/ha): 0% | Percent inhibition TRZAW (wheat (TRZAW); 100 g/ha): 0% | Percent inhibition TRZAW (wheat (TRZAW); 300 g/ha): 0% | Percent inhibition TRZAW (wheat (TRZAW); 900 g/ha): 20%

CCN(CC)C(=O)n1cnc(S(=O)(=O)C(F)(F)C(F)F)n1 [Example 16]
Pre-emergence activity (GR80) AMARE (AMARE (redroot pigweed) [1]): 300 g/ha | Pre-emergence activity (GR80) SETVI (SETVI (green foxtail)): 300 g/ha | Percent inhibition AMARE (AMARE (redroot pigweed) [2]; 10 g/ha): 80% | Percent inhibition AMARE (AMARE (redroot pigweed) [2]; 30 g/ha): 100% | Percent inhibition AMARE (AMARE (redroot pigweed) [2]; 100 g/ha): 100% | Percent inhibition AMARE (AMARE (redroot pigweed) [2]; 300 g/ha): 100% | Percent inhibition AMARE (AMARE (redroot pigweed) [2]; 900 g/ha): 100% | PPI activity (GR80) AMARE (AMARE (redroot pigweed) [2]): 10 g/ha | Percent inhibition CHEAL ([3]; 10 g/ha): 100% | Percent inhibition CHEAL ([3]; 30 g/ha): 100% | Percent inhibition CHEAL ([3]; 100 g/ha): 100% | Percent inhibition CHEAL ([3]; 300 g/ha): 100% | Percent inhibition CHEAL ([3]; 900 g/ha): 100% | PPI activity (GR80) CHEAL [3]: 30 g/ha | Percent inhibition ECHCG (ECHCG (barnyardgrass); 10 g/ha): 90% | Percent inhibition ECHCG (ECHCG (barnyardgrass); 30 g/ha): 100% | Percent inhibition ECHCG (ECHCG (barnyardgrass); 100 g/ha): 100% | Percent inhibition ECHCG (ECHCG (barnyardgrass); 300 g/ha): 100% | Percent inhibition ECHCG (ECHCG (barnyardgrass); 900 g/ha): 100% | PPI activity GR80, ECHCG (ECHCG (barnyardgrass)): 30 g/ha | PPI activity GR80, LAMPU [4]: 10 g/ha | Percent inhibition LAMPU ([4]; 10 g/ha): 50% | Percent inhibition LAMPU ([4]; 30 g/ha): 80% | Percent inhibition LAMPU ([4]; 100 g/ha): 90% | Percent inhibition LAMPU ([4]; 300 g/ha): 80% | Percent inhibition LAMPU ([4]; 900 g/ha): 90% | PPI activity GR80, AVEFA (AVEFA (wild oat)): 300 g/ha | Percent inhibition AVEFA (AVEFA (wild oat); 10 g/ha): 0% | Percent inhibition AVEFA (AVEFA (wild oat); 30 g/ha): 0% | Percent inhibition AVEFA (AVEFA (wild oat); 100 g/ha): 0% | Percent inhibition AVEFA (AVEFA (wild oat); 300 g/ha): 80% | Percent inhibition AVEFA (AVEFA (wild oat); 900 g/ha): 90% | PPI activity GR80, AGRRE [5]: 300 g/ha | Percent inhibition AGRRE ([5]; 10 g/ha): 0% | Percent inhibition AGRRE ([5]; 30 g/ha): 0% | Percent inhibition AGRRE ([5]; 100 g/ha): 0% | Percent inhibition AGRRE ([5]; 300 g/ha): 20% | Percent inhibition AGRRE ([5]; 900 g/ha): 70% | Percent inhibition XANST (XANST (cocklebur); 10 g/ha): 0% | Percent inhibition XANST (XANST (cocklebur); 30 g/ha): 0% | Percent inhibition XANST (XANST (cocklebur); 100 g/ha): 0% | Percent inhibition XANST (XANST (cocklebur); 300 g/ha): 0% | Percent inhibition XANST (XANST (cocklebur); 900 g/ha): 95% | Percent inhibition TRZAW (wheat (TRZAW); 10 g/ha): 0% | Percent inhibition TRZAW (wheat (TRZAW); 30 g/ha): 0% | Percent inhibition TRZAW (wheat (TRZAW); 100 g/ha): 10% | Percent inhibition TRZAW (wheat (TRZAW); 300 g/ha): 10% | Percent inhibition TRZAW (wheat (TRZAW); 900 g/ha): 20%
